From PMC3156232, “Rapid Probing of Biological Surfaces with a Sparse-Matrix Peptide Library” (PLoS ONE, 2011)
“Also recorded” adds a separate entry of the source.

Assays:
[1] = Tooth section binding by confocal laser scanning microscopy; settings: sectioned human teeth, FAM-labeled peptide, CLSM; result in words
Description: For tooth binding assays, FAM-labeled pilot matrix peptides were collected into four pools of 9 peptides each. Peptides were screened by exposing pools to sections taken from a collection of anonymous human teeth (extracted during normal clinical practice), followed by visualization of the samples by Confocal Laser Scanning Microscopy (CLSM).

S. aureus = experiment: Fluorescence microscopy screening of FAM-labeled peptides against immobilized cells; assay type: binding, Staphylococcus aureus; settings: FAM-labeled peptide 25 µM, 10 minutes, washed, result in words
Experimental: (§1) Peptide samples were prepared at a concentration of 25 µM for screening. For bacterial and yeast binding assays, cells were grown overnight, washed, and immobilized in a polylysine-coated 96-well plate, except in the case of S. mutans biofilms, where 10^5 cells were inoculated into 400 µl of Todd Hewitt broth in 48-well plates and biofilms were grown anaerobically for 24 hr. FAM-labeled peptides were applied to immobilized cell, yeast, and bacterial cultures, incubated for 10 minutes and washed extensively to remove unbound peptide. Samples were visualized by fluorescence microscopy (Nikon E400). For each peptide, both brightfield and fluorescence images were collected with the manufacturer-supplied software (SPOT, Diagnostic Instruments, Sterling Heights, MI). Post-collection, the locations of cells and background regions were determined using the brightfield images; those regions were then selected in the fluorescence images for quantitation of pixel values for determination of relative fluorescence intensities using The GIMP (http://www.gimp.org), [33]. Due to the variation in the levels of binding of the peptide to the well, these values are represented as bacterial fluorescence/background fluorescence, in order to remove the effects of precipitation or nonspecific binding from the final measurement.

wild type M. xanthus = experiment: as above; assay type: binding, Myxococcus xanthus; settings: FAM-labeled peptide 25 µM, 10 minutes, result in words
Experimental: as §1

[2] = test system: wild type S. mutans (UA140); experiment: Fluorescence microscopy binding to S. mutans; design: species or system Streptococcus mutans; settings: FAM-labeled peptide, result in words
Experimental: as §1

S. mutans gtfB mutant = experiment: Fluorescence microscopy binding to surface mutant; design: species or system Streptococcus mutans; settings: FAM-labeled peptide, result in words
Experimental: as §1

For AMKDAMERM [Pilot Library E4], the “Binding to tooth dentin” value [1] was “no obvious binding”, the “Binding to tooth enamel and enamel-proximal region of the dentino-enamel junction” value [1] was “clear binding” and the “Binding to immobilized S. aureus cells (fluorescence staining)” value (S. aureus) was “preferentially binds”. For the same sequence, the “Binding to wild-type M. xanthus cells (fluorescence staining)” value (wild type M. xanthus) was “preferentially binds”.
With AMQDAMNEM [Pilot Library E6] the “Binding to tooth dentin” value [1] was “bound selectively to dentin”.
For IWHSWISTW [sma24], the “Binding to wild type S. mutans” value [2] was “good binding activity and specificity; also recorded: strong binding” and the “Binding to S. mutans gtfB mutant unable to synthesize extracellular glucan” value (S. mutans gtfB mutant) was “reduced binding”.
